Data: ChEMBL document CHEMBL2331215, “Discovery of novel N-substituted oxindoles as selective m1 and m4 muscarinic acetylcholine receptors partial agonists” (ACS Med Chem Lett, 2013)
Calls of active or inactive are those of the source. The rule behind the calls is not given here.

Key:
[1] = target: T1, Muscarinic acetylcholine receptor M4 (Homo sapiens) (UniProt P08173); experiment: Partial agonist activity at human M4 receptor co-expressed with Galpha16 in CHO cells assessed as calcium mobilization at 3 uM after 60 mins by FLIPR assay; type: functional, cell-based
T1 sequence (whole entry): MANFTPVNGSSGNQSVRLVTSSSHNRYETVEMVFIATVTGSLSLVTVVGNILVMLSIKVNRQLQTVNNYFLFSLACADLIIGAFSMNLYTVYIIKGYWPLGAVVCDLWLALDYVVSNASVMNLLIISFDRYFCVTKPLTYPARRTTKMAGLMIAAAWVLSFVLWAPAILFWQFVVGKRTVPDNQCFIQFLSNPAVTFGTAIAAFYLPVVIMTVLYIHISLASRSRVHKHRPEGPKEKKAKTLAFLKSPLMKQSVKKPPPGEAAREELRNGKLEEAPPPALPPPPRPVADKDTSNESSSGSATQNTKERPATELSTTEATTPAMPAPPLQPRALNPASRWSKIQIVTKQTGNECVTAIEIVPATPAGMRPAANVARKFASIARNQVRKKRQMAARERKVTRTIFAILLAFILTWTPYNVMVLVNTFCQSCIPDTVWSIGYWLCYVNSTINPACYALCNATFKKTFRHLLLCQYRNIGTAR

[2] = target: T2, Muscarinic acetylcholine receptor M4 (Homo sapiens, UniProt P08173); experiment: (§1) Partial agonist activity at human M4 receptor co-expressed with Galpha16 in CHO cells assessed as calcium mobilization after 60 mins by FLIPR assay; type: functional, cell-based
T2 sequence (P08173 whole entry): T1 sequence (whole entry)

[3] = target: T1, Muscarinic acetylcholine receptor M4 (Homo sapiens); experiment: as §1; type: functional, cell-based
Rattus norvegicus [4] = species: Rattus norvegicus; settings: Sprague-Dawley, 0.1 to 1 mg/kg
[5] = target: Muscarinic acetylcholine receptor M3 (Homo sapiens) (UniProt P20309); experiment: Partial agonist activity at human M3 receptor in CHO cells assessed as calcium mobilization at 3 uM after 60 mins by FLIPR assay; type: functional, cell-based
Sequence of Muscarinic acetylcholine receptor M3 (Homo sapiens) (P20309 whole entry, looked up): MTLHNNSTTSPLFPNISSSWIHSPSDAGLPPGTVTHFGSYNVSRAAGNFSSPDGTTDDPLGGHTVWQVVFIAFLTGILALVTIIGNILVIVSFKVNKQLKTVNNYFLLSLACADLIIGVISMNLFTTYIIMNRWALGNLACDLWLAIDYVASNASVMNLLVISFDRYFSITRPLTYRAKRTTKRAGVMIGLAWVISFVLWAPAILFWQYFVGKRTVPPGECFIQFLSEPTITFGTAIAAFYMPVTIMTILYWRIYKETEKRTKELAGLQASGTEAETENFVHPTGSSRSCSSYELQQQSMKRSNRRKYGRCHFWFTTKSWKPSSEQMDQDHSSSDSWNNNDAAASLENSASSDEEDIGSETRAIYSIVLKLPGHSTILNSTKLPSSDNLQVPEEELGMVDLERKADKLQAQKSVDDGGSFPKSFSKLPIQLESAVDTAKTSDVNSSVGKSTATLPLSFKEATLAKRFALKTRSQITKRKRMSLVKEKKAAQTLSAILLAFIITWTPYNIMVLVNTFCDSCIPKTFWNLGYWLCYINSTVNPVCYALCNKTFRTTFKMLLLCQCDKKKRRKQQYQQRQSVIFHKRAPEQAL

[6] = target: T3, Muscarinic acetylcholine receptor M5 (Homo sapiens) (UniProt P08912); experiment: Partial agonist activity at human M5 receptor in CHO cells assessed as calcium mobilization at 3 uM after 60 mins by FLIPR assay; type: functional, cell-based
T3 sequence (whole entry): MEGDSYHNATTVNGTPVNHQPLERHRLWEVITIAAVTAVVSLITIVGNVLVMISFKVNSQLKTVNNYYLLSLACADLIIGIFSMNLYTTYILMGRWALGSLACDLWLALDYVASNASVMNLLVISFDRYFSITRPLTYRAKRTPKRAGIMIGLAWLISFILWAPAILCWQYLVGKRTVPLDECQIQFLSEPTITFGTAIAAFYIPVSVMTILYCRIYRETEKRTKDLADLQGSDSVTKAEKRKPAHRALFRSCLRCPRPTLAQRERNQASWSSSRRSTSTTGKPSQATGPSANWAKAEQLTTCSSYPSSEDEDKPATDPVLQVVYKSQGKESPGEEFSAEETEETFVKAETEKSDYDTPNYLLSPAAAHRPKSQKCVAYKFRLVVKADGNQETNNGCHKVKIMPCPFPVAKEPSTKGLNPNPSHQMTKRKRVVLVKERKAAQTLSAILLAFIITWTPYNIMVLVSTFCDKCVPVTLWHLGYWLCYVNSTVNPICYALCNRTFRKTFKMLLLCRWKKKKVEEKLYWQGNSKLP

[7] = target: T4, Muscarinic acetylcholine receptor M2 (Homo sapiens) (UniProt P08172); experiment: Partial agonist activity at human M2 receptor co-expressed with Galpha16 in CHO cells assessed as calcium mobilization at 3 uM after 60 mins by FLIPR assay; type: functional, cell-based
T4 sequence (whole entry): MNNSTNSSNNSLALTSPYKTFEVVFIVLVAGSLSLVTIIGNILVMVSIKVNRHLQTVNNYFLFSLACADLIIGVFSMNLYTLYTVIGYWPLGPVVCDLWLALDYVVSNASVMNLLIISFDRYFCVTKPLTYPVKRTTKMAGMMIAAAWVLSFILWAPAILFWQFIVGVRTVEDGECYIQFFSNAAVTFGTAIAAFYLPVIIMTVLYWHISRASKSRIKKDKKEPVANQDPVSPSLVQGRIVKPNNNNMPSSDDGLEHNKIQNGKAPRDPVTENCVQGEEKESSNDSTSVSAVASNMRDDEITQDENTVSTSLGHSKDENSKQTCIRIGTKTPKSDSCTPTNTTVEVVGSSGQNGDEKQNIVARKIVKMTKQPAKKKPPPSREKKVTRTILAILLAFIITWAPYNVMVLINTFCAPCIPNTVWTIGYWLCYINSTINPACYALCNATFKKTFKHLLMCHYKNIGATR

[8] = target: T5, Muscarinic acetylcholine receptor M1 (Homo sapiens) (UniProt P11229); experiment: Partial agonist activity at human M1 receptor in CHO cells assessed as calcium mobilization at 3 uM after 60 mins by FLIPR assay; type: functional, cell-based
T5 sequence (whole entry): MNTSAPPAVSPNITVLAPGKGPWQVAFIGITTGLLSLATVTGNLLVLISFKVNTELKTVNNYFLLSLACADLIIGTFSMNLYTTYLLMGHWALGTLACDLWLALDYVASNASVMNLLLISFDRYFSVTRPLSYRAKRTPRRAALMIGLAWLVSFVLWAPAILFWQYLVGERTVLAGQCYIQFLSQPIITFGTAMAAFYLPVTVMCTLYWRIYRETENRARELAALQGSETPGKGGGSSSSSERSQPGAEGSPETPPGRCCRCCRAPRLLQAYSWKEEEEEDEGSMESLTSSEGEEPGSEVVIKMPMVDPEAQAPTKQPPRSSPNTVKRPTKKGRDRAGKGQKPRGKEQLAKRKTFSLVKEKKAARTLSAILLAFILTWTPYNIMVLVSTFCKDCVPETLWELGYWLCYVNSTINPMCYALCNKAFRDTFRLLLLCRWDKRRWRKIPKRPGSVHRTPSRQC

[9] = target: Voltage-gated inwardly rectifying potassium channel KCNH2 (Homo sapiens, UniProt Q12809); experiment: Inhibition of human ERG assessed as decrease in tail current amplitude measured after 5 mins by whole cell patch clamp technique
Sequence of Voltage-gated inwardly rectifying potassium channel KCNH2 (Q12809 whole entry): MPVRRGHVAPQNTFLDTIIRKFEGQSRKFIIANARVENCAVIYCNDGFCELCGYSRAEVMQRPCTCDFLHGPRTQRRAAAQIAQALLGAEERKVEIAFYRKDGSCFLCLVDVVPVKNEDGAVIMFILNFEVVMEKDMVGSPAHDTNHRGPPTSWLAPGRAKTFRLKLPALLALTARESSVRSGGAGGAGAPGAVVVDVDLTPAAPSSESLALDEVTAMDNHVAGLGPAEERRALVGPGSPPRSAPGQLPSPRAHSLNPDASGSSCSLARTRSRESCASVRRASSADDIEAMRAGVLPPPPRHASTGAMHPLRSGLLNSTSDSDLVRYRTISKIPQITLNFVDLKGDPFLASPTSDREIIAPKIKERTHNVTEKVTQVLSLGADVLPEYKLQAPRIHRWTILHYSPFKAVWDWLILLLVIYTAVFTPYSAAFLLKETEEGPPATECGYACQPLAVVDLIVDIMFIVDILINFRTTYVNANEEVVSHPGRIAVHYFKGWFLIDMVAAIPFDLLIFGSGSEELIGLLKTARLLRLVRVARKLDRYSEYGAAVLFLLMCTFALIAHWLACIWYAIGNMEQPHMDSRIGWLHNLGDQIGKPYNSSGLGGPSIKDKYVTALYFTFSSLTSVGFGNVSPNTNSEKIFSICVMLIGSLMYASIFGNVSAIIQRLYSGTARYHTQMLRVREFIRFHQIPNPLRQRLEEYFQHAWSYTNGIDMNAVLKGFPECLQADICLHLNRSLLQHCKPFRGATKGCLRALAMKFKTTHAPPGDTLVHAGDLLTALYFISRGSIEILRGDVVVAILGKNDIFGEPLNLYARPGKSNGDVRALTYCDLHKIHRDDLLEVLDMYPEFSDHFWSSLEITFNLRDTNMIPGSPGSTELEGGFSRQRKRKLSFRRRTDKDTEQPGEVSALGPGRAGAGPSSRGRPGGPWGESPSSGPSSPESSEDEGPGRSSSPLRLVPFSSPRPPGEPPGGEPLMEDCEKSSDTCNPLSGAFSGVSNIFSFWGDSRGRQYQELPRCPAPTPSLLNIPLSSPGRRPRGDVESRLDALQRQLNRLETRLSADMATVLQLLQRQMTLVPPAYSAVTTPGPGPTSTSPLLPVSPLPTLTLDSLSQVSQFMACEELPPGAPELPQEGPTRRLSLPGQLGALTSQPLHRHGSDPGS

[10] = target: T4, Muscarinic acetylcholine receptor M2 (Homo sapiens); experiment: Agonist activity at M2 receptor (unknown origin) at 3 uM by calcium mobilization assay; type: functional
[11] = target: T5, Muscarinic acetylcholine receptor M1 (Homo sapiens); experiment: Agonist activity at M1 receptor (unknown origin) at 3 uM by calcium mobilization assay; type: functional
[12] = target: T1, Muscarinic acetylcholine receptor M4 (Homo sapiens); experiment: Agonist activity at M4 receptor (unknown origin) at 3 uM by calcium mobilization assay; type: functional
[13] = target: T3, Muscarinic acetylcholine receptor M5 (Homo sapiens); experiment: Agonist activity at M5 receptor (unknown origin) at 3 uM by calcium mobilization assay; type: functional
[14] = target: Muscarinic acetylcholine receptor M3 (Homo sapiens) (UniProt P20309); experiment: Agonist activity at M3 receptor (unknown origin) at 3 uM by calcium mobilization assay; type: functional
Mus musculus [15] = experiment: Induction of seizures in ddY mouse at 300 mg/kg, sc measured for 45 mins after drug injection; type: organism-based; design: dose 300 mg/kg, route subcutaneous; settings: in vivo, 0.75 h
[16] = target: T1, Muscarinic acetylcholine receptor M4 (Homo sapiens); experiment: Partial agonist activity at human M4 receptor co-expressed with Galpha16 in CHO cells assessed as calcium mobilization at 30 nM after 60 mins by FLIPR assay; type: functional, cell-based
[17] = target: T1, Muscarinic acetylcholine receptor M4 (Homo sapiens); experiment: Agonist activity at M4 receptor (unknown origin) at 10 uM by calcium mobilization assay; type: functional
Cynomolgus monkey [18] = experiment: Induction of salivation in sc dosed cynomolgus monkey; type: organism-based, Macaca fascicularis; settings: in vivo
Cynomolgus monkey [19] = experiment: Induction of miosis in sc dosed cynomolgus monkey; type: organism-based, Macaca fascicularis; settings: in vivo
Cynomolgus monkey [20] = experiment: Induction of vomiting in sc dosed cynomolgus monkey; type: organism-based, Macaca fascicularis; settings: in vivo
Cynomolgus monkey [21] = experiment: Induction of drowsiness in sc dosed cynomolgus monkey; type: organism-based, Macaca fascicularis; settings: in vivo
Rattus norvegicus [22] = experiment: Potentiation of haloperidol-induced catalepsy in Sprague-Dawley rats at 30 mg/kg, sc administered 15 mins after haloperidol injection measured after 45 mins; type: ADME, organism-based; design: dose 30 mg/kg, route subcutaneous; settings: in vivo, 0.75 h
Cynomolgus monkey [23] = experiment: Cardiotoxicity in telemetered cynomolgus monkey assessed as prolongation of QTc interval at 1 to 3 mg/kg, sc measured after 1 to 4 hrs by telemetry method; type: toxicity, organism-based, Macaca fascicularis; design: route subcutaneous; settings: in vivo
Mus musculus [24] = experiment: Induction of salivation in ddY mouse at 10 to 30 mg/kg, sc measured for 30 mins after drug administration; type: organism-based; design: dose 10-30 mg/kg, route subcutaneous; settings: in vivo, 0.5 h
Cynomolgus monkey [25] = experiment: Cardiotoxicity in telemetered cynomolgus monkey assessed as increase in mean blood pressure at 1 to 3 mg/kg, sc measured after 1 to 4 hrs by telemetry method; type: toxicity, organism-based, Macaca fascicularis; design: route subcutaneous; settings: in vivo
Cynomolgus monkey [26] = experiment: Cardiotoxicity in telemetered cynomolgus monkey assessed as prolongation of QRS duration at 1 to 3 mg/kg, sc measured after 1 to 4 hrs by telemetry method; type: toxicity, organism-based, Macaca fascicularis; design: route subcutaneous; settings: in vivo
Cynomolgus monkey [27] = experiment: Cardiotoxicity in telemetered cynomolgus monkey assessed as increase in heart rate at 1 to 3 mg/kg, sc measured after 1 to 4 hrs by telemetry method; type: toxicity, organism-based, Macaca fascicularis; design: route subcutaneous; settings: in vivo

`CCOC(=O)N1CCC(CN2CC[C@H](N3C(=O)Cc4ccccc43)C2)(OC)CC1` gave an Intrinsic activity [1] of 13%.

For `CO/N=C(\C#N)[C@H]1CN2CCC1CC2` [SABCOMELINE], the EC50 [2] was 5.7 nM, the Intrinsic activity [3] was 28% and the inhibition (Rattus norvegicus [4]) was “Active”.

Compound `CCOC(=O)N1CCC(O)(CN2CC[C@H](N3C(=O)Cc4ccccc43)C2)CC1` has an Activity [5] of 31%, an EC50 [2] of 320 nM and an Intrinsic activity [3] of 45%. For the same compound, the Activity [6] was 3%, the Activity [7] was 12% and the Activity [8] was 57%. For the same compound, the IC50 [9] was 3.9 µM.

Work on `CCOC(=O)N1CCC(CN2CC(N3C(=O)Cc4ccccc43)C2)CC1` yielded an Activity [10] of 2%, an Activity [11] of 65% and an Activity [12] of 46%. The Activity [13] was 3% and the Activity [14] was 3%.

Work on `CCOC(=O)N1CCC(CN2CCCC(N3C(=O)Cc4ccccc43)CC2)CC1` (stereo unspecified) yielded an Activity [10] of 4%, an Activity [11] of 7% and an Activity [12] of 4%. It also gave an Activity [13] of 3% and an Activity [14] of 2%.

With `CC[C@@H]1C(=O)OC[C@@H]1Cc1cncn1C` [PILOCARPINE] the Activity (Mus musculus [15]) was “Toxic”.

Work on `CCOC(=O)N1CCC(CN2CC[C@H](N3C(=O)Cc4ccccc43)C2)CC1` yielded an Activity [5] of 7%, an Activity [10] of 30% and an Activity [6] of 5%. It also gave an Intrinsic activity [16] of 79%, an Activity [11] of 83% and an Activity [7] of 30%. The Activity [12] was 124%, the Activity [13] was 5% and the Activity [8] was 83%. The Activity [14] was 7%.

Work on `CCOC(=O)N1CCC(CN2CC[C@@H](N3C(=O)Cc4ccccc43)C2)CC1` yielded an Activity [10] of 27%, an Activity [11] of 88% and an Activity [12] of 86%. It also gave an Activity [13] of 4% and an Activity [14] of 8%.

`CC(C)=CCN1CCC(N2C(=O)C(C)(C)c3ccccc32)CC1` was tested, and the Activity [17] was 33% and the Activity [12] was 14%.

With `CCOC(=O)N1CCC(CN2CCC(N3C(=O)Cc4ccccc43)CC2)CC1` the Activity [10] was 6%, the Activity [11] was 88% and the Activity [12] was 33%. It also gave an Activity [13] of 6% and an Activity [14] of 2%.

`CCCCCCOc1nsnc1C1=CCCN(C)C1.O=C(O)C(O)C(O)C(=O)O` [XANOMELINE TARTRATE] was tested, and the Activity (Cynomolgus monkey [18]) was “Toxic”, the Activity [10] was 34% and the Activity [11] was 145%. For the same compound, the Activity (Cynomolgus monkey [19]) was “Toxic”, the Activity (Cynomolgus monkey [20]) was “Toxic” and the Activity (Cynomolgus monkey [21]) was “Toxic”. For the same compound, the Activity [12] was 83%, the Activity [13] was 33% and the Activity (Rattus norvegicus [22]) was “Toxic”. For the same compound, the Activity (Cynomolgus monkey [23]) was “Toxic”, the Activity (Mus musculus [24]) was “Toxic” and the Activity (Cynomolgus monkey [25]) was “Toxic”. For the same compound, the Activity (Cynomolgus monkey [26]) was “Toxic”, the Activity [14] was 85% and the Activity (Cynomolgus monkey [27]) was “Toxic”.

Compound `CCOC(=O)N1CCC(C)(CN2CC[C@H](N3C(=O)Cc4ccccc43)C2)CC1` has an Activity [5] of 2%, an EC50 [2] of 15 nM and an Intrinsic activity [3] of 65%. It also gave an Activity [6] of 4%, an Activity [7] of 3% and an Activity [8] of 49%. It also gave an IC50 [9] of 3.5 µM.
